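Values below derive from 48-hour exposures of cells grown in 96-well plates, with endpoints linearly interpolated between the two concentrations bracketing the appropriate inhibition level. GI50: concentration for 50% inhibition of growth. At the TGI there is no net growth.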
Assays:
Experiment in all cases: NCI-60 cell line screen, 48 h
KM12 colon = system: KM12 colon
HCC-2998 colon = system: HCC-2998 colon
SW-620 colon = system: SW-620 colon
K-562 leukemia = system: K-562 leukemia
SK-MEL-28 melanoma = system: SK-MEL-28 melanoma
SF-295 CNS = system: SF-295 CNS
SR leukemia = system: SR leukemia
T-47D breast = system: T-47D breast
SF-268 CNS = system: SF-268 CNS
RPMI-8226 leukemia = system: RPMI-8226 leukemia
NCI-H226 lung = system: NCI-H226 lung
UACC-62 melanoma = system: UACC-62 melanoma
COLO 205 colon = system: COLO 205 colon
SK-MEL-2 melanoma = system: SK-MEL-2 melanoma
SN12C renal = system: SN12C renal
U251 CNS = system: U251 CNS
HT29 colon = system: HT29 colon
CCRF-CEM leukemia = system: CCRF-CEM leukemia
ACHN renal = system: ACHN renal
MOLT-4 leukemia = system: MOLT-4 leukemia
HCT-116 colon = system: HCT-116 colon
DU-145 prostate = system: DU-145 prostate
HS 578T breast = system: HS 578T breast
A549 NSCLC = system: A549 NSCLC
HOP-92 NSCLC = system: HOP-92 NSCLC
SK-OV-3 ovarian = system: SK-OV-3 ovarian
EKVX NSCLC = system: EKVX NSCLC
TK-10 renal = system: TK-10 renal
IGROV1 ovarian = system: IGROV1 ovarian
BT-549 breast = system: BT-549 breast
A498 renal = system: A498 renal
M14 melanoma = system: M14 melanoma
SK-MEL-5 melanoma = system: SK-MEL-5 melanoma
NCI-H23 lung = system: NCI-H23 lung
UO-31 renal = system: UO-31 renal
RXF 393 renal = system: RXF 393 renal
NCI/ADR-RES ovarian = system: NCI/ADR-RES ovarian
MALME-3M melanoma = system: MALME-3M melanoma
HCT-15 colon = system: HCT-15 colon
NCI-H460 lung = system: NCI-H460 lung
MCF7 breast = system: MCF7 breast
SF-539 CNS = system: SF-539 CNS
LOX IMVI melanoma = system: LOX IMVI melanoma
OVCAR-5 ovarian = system: OVCAR-5 ovarian
MDA-MB-435 = system: MDA-MB-435
NCI-H522 lung = system: NCI-H522 lung
OVCAR-8 ovarian = system: OVCAR-8 ovarian
CAKI-1 renal = system: CAKI-1 renal
786-0 renal = system: 786-0 renal
OVCAR-4 ovarian = system: OVCAR-4 ovarian
HL-60(TB) leukemia = system: HL-60(TB) leukemia
PC-3 prostate = system: PC-3 prostate
HOP-62 NSCLC = system: HOP-62 NSCLC
MDA-MB-231 breast = system: MDA-MB-231 breast
SNB-19 CNS = system: SNB-19 CNS
UACC-257 melanoma = system: UACC-257 melanoma
SNB-75 CNS = system: SNB-75 CNS

Question: For `O=C(NNc1nc2cc(F)ccc2n2c(CO)ccc12)c1cnccn1`, which GI50 (KM12 colon) is on record?
Answer: 432 nM

Question: What about the TGI (KM12 colon) of the same compound?
Answer: > 100000 nM

Question: And the GI50 (HCC-2998 colon)?
Answer: 568 nM

Question: What about the TGI (HCC-2998 colon) of the same compound?
Answer: > 100000 nM

Question: And the GI50 (SW-620 colon)?
Answer: 649 nM

Question: What about the TGI (SW-620 colon) of the same compound?
Answer: > 100000 nM

Question: What about the GI50 (K-562 leukemia) of the same compound?
Answer: 508 nM

Question: What about the TGI (K-562 leukemia) of the same compound?
Answer: > 100000 nM

Question: And the GI50 (SK-MEL-28 melanoma)?
Answer: 595 nM

Question: What about the TGI (SK-MEL-28 melanoma) of the same compound?
Answer: > 100000 nM

Question: What about the GI50 (SF-295 CNS) of the same compound?
Answer: 295 nM

Question: What about the TGI (SF-295 CNS) of the same compound?
Answer: > 100000 nM

Question: What about the GI50 (SR leukemia) of the same compound?
Answer: 448 nM

Question: What about the TGI (SR leukemia) of the same compound?
Answer: > 100000 nM

Question: What about the GI50 (T-47D breast) of the same compound?
Answer: 837 nM

Question: What about the TGI (T-47D breast) of the same compound?
Answer: > 52600 nM

Question: And the GI50 (SF-268 CNS)?
Answer: 516 nM

Question: What about the TGI (SF-268 CNS) of the same compound?
Answer: > 100000 nM

Question: And the GI50 (RPMI-8226 leukemia)?
Answer: 721 nM

Question: What about the TGI (RPMI-8226 leukemia) of the same compound?
Answer: > 57600 nM

Question: And the GI50 (NCI-H226 lung)?
Answer: 367 nM

Question: What about the TGI (NCI-H226 lung) of the same compound?
Answer: 10800 nM

Question: And the GI50 (UACC-62 melanoma)?
Answer: 481 nM

Question: And the TGI (UACC-62 melanoma)?
Answer: 11200 nM

Question: And the GI50 (COLO 205 colon)?
Answer: 368 nM

Question: And the TGI (COLO 205 colon)?
Answer: > 38500 nM

Question: And the GI50 (SK-MEL-2 melanoma)?
Answer: 1900 nM

Question: What about the TGI (SK-MEL-2 melanoma) of the same compound?
Answer: 56400 nM

Question: What about the GI50 (SN12C renal) of the same compound?
Answer: 704 nM

Question: And the TGI (SN12C renal)?
Answer: > 100000 nM

Question: And the GI50 (U251 CNS)?
Answer: 390 nM

Question: And the TGI (U251 CNS)?
Answer: > 100000 nM

Question: What about the GI50 (HT29 colon) of the same compound?
Answer: 552 nM

Question: And the TGI (HT29 colon)?
Answer: > 100000 nM

Question: And the GI50 (CCRF-CEM leukemia)?
Answer: 395 nM

Question: What about the TGI (CCRF-CEM leukemia) of the same compound?
Answer: > 60400 nM

Question: What about the GI50 (ACHN renal) of the same compound?
Answer: 111 nM

Question: And the TGI (ACHN renal)?
Answer: 12200 nM

Question: What about the GI50 (MOLT-4 leukemia) of the same compound?
Answer: 407 nM

Question: And the TGI (MOLT-4 leukemia)?
Answer: > 100000 nM

Question: And the GI50 (HCT-116 colon)?
Answer: 345 nM

Question: What about the TGI (HCT-116 colon) of the same compound?
Answer: > 42900 nM

Question: And the GI50 (DU-145 prostate)?
Answer: 780 nM

Question: And the TGI (DU-145 prostate)?
Answer: > 100000 nM

Question: And the GI50 (HS 578T breast)?
Answer: 4310 nM

Question: And the TGI (HS 578T breast)?
Answer: > 100000 nM

Question: And the GI50 (A549 NSCLC)?
Answer: 471 nM

Question: And the TGI (A549 NSCLC)?
Answer: > 55800 nM

Question: And the GI50 (HOP-92 NSCLC)?
Answer: 1400 nM

Question: What about the TGI (HOP-92 NSCLC) of the same compound?
Answer: 63800 nM

Question: What about the GI50 (SK-OV-3 ovarian) of the same compound?
Answer: 543 nM

Question: What about the TGI (SK-OV-3 ovarian) of the same compound?
Answer: 18200 nM

Question: And the GI50 (EKVX NSCLC)?
Answer: 408 nM

Question: What about the TGI (EKVX NSCLC) of the same compound?
Answer: > 57200 nM

Question: What about the GI50 (TK-10 renal) of the same compound?
Answer: 504 nM

Question: What about the TGI (TK-10 renal) of the same compound?
Answer: > 100000 nM

Question: What about the GI50 (IGROV1 ovarian) of the same compound?
Answer: 509 nM

Question: What about the TGI (IGROV1 ovarian) of the same compound?
Answer: 29500 nM

Question: What about the GI50 (BT-549 breast) of the same compound?
Answer: 667 nM

Question: And the GI50 (A498 renal)?
Answer: 1160 nM

Question: And the TGI (A498 renal)?
Answer: 4990 nM

Question: And the GI50 (M14 melanoma)?
Answer: 292 nM

Question: And the TGI (M14 melanoma)?
Answer: 4050 nM

Question: What about the GI50 (SK-MEL-5 melanoma) of the same compound?
Answer: 481 nM

Question: And the TGI (SK-MEL-5 melanoma)?
Answer: 3610 nM

Question: And the GI50 (NCI-H23 lung)?
Answer: 895 nM

Question: What about the TGI (NCI-H23 lung) of the same compound?
Answer: > 100000 nM

Question: What about the GI50 (UO-31 renal) of the same compound?
Answer: 68.9 nM

Question: What about the TGI (UO-31 renal) of the same compound?
Answer: 5050 nM

Question: What about the GI50 (RXF 393 renal) of the same compound?
Answer: 557 nM

Question: And the TGI (RXF 393 renal)?
Answer: 10000 nM

Question: What about the GI50 (NCI/ADR-RES ovarian) of the same compound?
Answer: 243 nM

Question: What about the TGI (NCI/ADR-RES ovarian) of the same compound?
Answer: > 24900 nM

Question: What about the GI50 (MALME-3M melanoma) of the same compound?
Answer: 1070 nM

Question: What about the TGI (MALME-3M melanoma) of the same compound?
Answer: 20200 nM

Question: What about the GI50 (HCT-15 colon) of the same compound?
Answer: 69.1 nM

Question: And the TGI (HCT-15 colon)?
Answer: > 45700 nM

Question: What about the GI50 (NCI-H460 lung) of the same compound?
Answer: 245 nM

Question: What about the TGI (NCI-H460 lung) of the same compound?
Answer: 11000 nM

Question: And the GI50 (MCF7 breast)?
Answer: 541 nM

Question: And the TGI (MCF7 breast)?
Answer: 36000 nM

Question: And the GI50 (SF-539 CNS)?
Answer: 489 nM

Question: What about the TGI (SF-539 CNS) of the same compound?
Answer: > 100000 nM

Question: And the GI50 (LOX IMVI melanoma)?
Answer: 317 nM

Question: And the TGI (LOX IMVI melanoma)?
Answer: 4080 nM

Question: And the GI50 (OVCAR-5 ovarian)?
Answer: 1360 nM

Question: And the TGI (OVCAR-5 ovarian)?
Answer: > 100000 nM

Question: And the GI50 (MDA-MB-435)?
Answer: 712 nM

Question: And the TGI (MDA-MB-435)?
Answer: > 100000 nM

Question: And the GI50 (NCI-H522 lung)?
Answer: 1010 nM

Question: What about the TGI (NCI-H522 lung) of the same compound?
Answer: 8070 nM

Question: What about the GI50 (OVCAR-8 ovarian) of the same compound?
Answer: 343 nM

Question: And the TGI (OVCAR-8 ovarian)?
Answer: > 31900 nM

Question: And the GI50 (CAKI-1 renal)?
Answer: 281 nM

Question: And the TGI (CAKI-1 renal)?
Answer: > 100000 nM

Question: What about the GI50 (786-0 renal) of the same compound?
Answer: 387 nM

Question: And the TGI (786-0 renal)?
Answer: 11900 nM

Question: And the GI50 (OVCAR-4 ovarian)?
Answer: 534 nM

Question: What about the TGI (OVCAR-4 ovarian) of the same compound?
Answer: > 83100 nM

Question: And the GI50 (HL-60(TB) leukemia)?
Answer: 435 nM

Question: And the TGI (HL-60(TB) leukemia)?
Answer: > 38000 nM

Question: And the GI50 (PC-3 prostate)?
Answer: 780 nM

Question: And the TGI (PC-3 prostate)?
Answer: > 100000 nM

Question: And the GI50 (HOP-62 NSCLC)?
Answer: 344 nM

Question: What about the TGI (HOP-62 NSCLC) of the same compound?
Answer: > 32800 nM

Question: What about the GI50 (MDA-MB-231 breast) of the same compound?
Answer: 633 nM

Question: What about the TGI (MDA-MB-231 breast) of the same compound?
Answer: > 100000 nM

Question: And the GI50 (SNB-19 CNS)?
Answer: 665 nM

Question: What about the TGI (SNB-19 CNS) of the same compound?
Answer: > 100000 nM

Question: And the GI50 (UACC-257 melanoma)?
Answer: 1160 nM

Question: And the TGI (UACC-257 melanoma)?
Answer: 6050 nM

Question: And the GI50 (SNB-75 CNS)?
Answer: 986 nM

Question: What about the TGI (SNB-75 CNS) of the same compound?
Answer: 27300 nM

— PubChem BioAssay (NCI)
